# Test results published in patent US12421220B2, “Bicyclic-substituted glutarimide cereblon binders” (C4 THERAPEUTICS, INC., priority 2022, dated 2025).
# Biological target: CRBN-DDB1 (CRBN_DDB1.3) (Homo sapiens, UniProt Q96SW2)
# Test: Fluorescence polarization (FP) binding assay, CRBN_DDB1.3 construct
# Conditions: 0.05% PA, 0.1% BSA; benzomorpholine binders; read-out: FP CRBN_DDB1.3 0.05% PA, 0.1% BSA Ka nM
# Description: Example 2: Fluorescence Polarization (FP) Assay for Screening Compound Ligand Binders of CRBN-DDB1
# Measuring compound ligand binding to CRBN-DDB 1 was carried out using an established sensitive and quantitative in vitro fluorescence polarization (FP) based binding assay. (See, I. J. Enyedy et al, J. Med. Chem., 44: […] [2001]). Compounds were dispensed from serially diluted DMSO stock into black 384-well compatible fluorescence polarization plates using an Echo acoustic dispenser. Compound binding to CRBN-DDB 1 was measured by displacement of an established CRBN binding ligand conjugated to an Alexa Fluor® dye (probe). A […] mixture containing 10nM CRBN-DDB1 and 5 nM probe in 50 mM Hepes, pH 7.4, 200 mM NaCl, 1% DMSO, 0.1% BSA and 0.05% o pluronic acid-127 acid was added to wells containing compound and incubated at room temperature for 60 min. Matching control wells excluding CRBN-DDB 1 were used to correct for background fluorescence. Plates were read on an Envision plate reader with appropriate FP filter sets. The corrected S (perpendicular) and P (parallel) values were used to calculate fluorescence polarization (FP) with the following equation: FP=1000*(S−G*P)/(S+G*P).
# The fractional amount of bound probe (FB) to CRBN-DDB 1 as a function of compound concentration was fitted according to Wang; FEBS Letters 360, (1995), 111-114 to obtain fits for parameter offsets and binding constant (KA) of competitor compound.
# CRBN-DDB1 (CRBN_DDB1.3), sequence (Q96SW2 318-426 limits assumed): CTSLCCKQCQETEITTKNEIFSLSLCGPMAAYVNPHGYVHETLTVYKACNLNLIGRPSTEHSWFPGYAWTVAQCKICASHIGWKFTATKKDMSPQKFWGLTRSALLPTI
row,Compound,Kd [nM]
1,"CN(C(=O)OC(C)(C)C)C1CCN(c2cccc3c2OCCN3[C@H]2CCC(=O)NC2=O)CC1 (single isomer, unassigned) [Compound 16-6]",≤ 100000
2,"CN(C(=O)OC(C)(C)C)C1CCN(c2cccc3c2OCCN3[C@@H]2CCC(=O)NC2=O)CC1 (single isomer, unassigned) [Compound 16-7]",≤ 1000
3,"CC(C)(C)OC(=O)CN1CCC(c2cccc3c2OCCN3[C@H]2CCC(=O)NC2=O)CC1 (single isomer, unassigned) [Compound 24-3]",≤ 100000
4,"CC(C)(C)OC(=O)CN1CCC(c2cccc3c2OCCN3[C@@H]2CCC(=O)NC2=O)CC1 (single isomer, unassigned) [Compound 24-4]",≤ 100000
5,"O=C1CCC(c2cccc3c2OCCN3C2CCC(=O)NC2=O)CC1 (stereo not shown) [Compound 5-14, 3-[8-(4-oxocyclohexyl)-2,3-dihydro-1,4-benzoxazin-4-yl]piperidine-2,6-dione]",≤ 100000
6,"O=C1CCN(c2cccc3c2OCCN3C2CCC(=O)NC2=O)CC1 (stereo not shown) [Compound 6-12, 3-(8-(4-oxopiperidin-1-yl)-2,3-dihydro-4H-benzo[b][1,4]oxazin-4-yl)piperidine-2,6-dione]",≤ 100000
7,"O=C1CCC(c2ccnc3c2OCCN3C2CCC(=O)NC2=O)CC1 (stereo not shown) [Compound 8-10, 3-(8-(4-oxocyclohexyl)-2,3-dihydro-4H-pyrido[3,2-b][1,4]oxazin-4-yl)piperidine-2,6-dione]",≤ 100000
8,"O=C1CCC(N2CCOc3c(N4CCNCC4)cccc32)C(=O)N1 (stereo not shown) [Compound 10-10, 3-(8-(piperazin-1-yl)-2H-benzo[b][1,4]oxazin-4(3H)-yl)piperidine-2,6-dione]",≤ 100000
9,"O=C1CCC(N2CCOc3c([C@H]4CCCNC4)cccc32)C(=O)N1 (stereo partly drawn) [Compound 13-8, 3-[8-[(3R)-3-piperidyl]-2,3-dihydro-1,4-benzoxazin-4-yl]piperidine-2,6-dione]",≤ 100000
10,"O=C1CCC(N2CCOc3c([C@@H]4CCCNC4)cccc32)C(=O)N1 (stereo partly drawn) [Compound 13-11, 3-[8-[(3S)-3-piperidyl]-2,3-dihydro-1,4-benzoxazin-4-yl]piperidine-2,6-dione]",≤ 100000
11,"O=C1CCC(N2CCOc3c([C@@H]4CCNC4)cccc32)C(=O)N1 (stereo partly drawn) [Compound 14-7, 3-(8-((S)-pyrrolidin-3-yl)-2H-benzo[b][1,4]oxazin-4(3H)-yl)piperidine-2,6-dione]",≤ 100000
12,"CNC1CCN(c2cccc3c2O[C@H](C)CN3C2CCC(=O)NC2=O)CC1 (stereo partly drawn) [Compound 18-10, 3-[(2R)-2-methyl-8-[4-(methylamino)-1-piperidyl]-2,3-dihydro-1,4-benzoxazin-4-yl]piperidine-2,6-dione]",≤ 100000

# Same assay, conditions: 0.05% PA, 0.1% BSA; indoline binders; read-out: FP CRBN_DDB1.3 0.05% PA, 0.1% BSA ka nM
row,Compound,Kd [nM]
1,"O=C1CCC(N2CCc3c(N4CCC(CCO)CC4)cccc32)C(=O)N1 (racemic) [Compound 42-4, 3-[4-[4-(2-hydroxyethyl)-1-piperidyl]indolin-1-yl]piperidine-2,6-dione]",< 100000
2,"CC(C)(C)OC(=O)C1CCN(Cc2cccc3c2CCN3C2CCC(=O)NC2=O)CC1 (racemic) [Compound 54-5, tert-butyl 1-[[1-(2,6-dioxo-3-piperidyl)indolin-4-yl]methyl]piperidine-4-carboxylate]",< 100000
3,"CC(C)(C)OC(=O)CC1(O)CCN(c2cccc3c2CCN3[C@H]2CCC(=O)NC2=O)CC1 (single isomer, unassigned) [Compound 38-6]",< 100000
4,"CC(C)(C)OC(=O)CC1(O)CCN(c2cccc3c2CCN3[C@@H]2CCC(=O)NC2=O)CC1 (single isomer, unassigned) [Compound 38-7]",< 1000
5,"CC(C)(C)OC(=O)CC1CCN(c2cccc3c2CCN3[C@H]2CCC(=O)NC2=O)CC1 (single isomer, unassigned) [Compound 39-5]",< 100000
6,"CC(C)(C)OC(=O)CC1CCN(c2cccc3c2CCN3[C@@H]2CCC(=O)NC2=O)CC1 (single isomer, unassigned) [Compound 39-6]",< 1000
7,"CC(C)(C)OC(=O)N1CCC(c2ccc3c(c2)CCN3[C@@H]2CCC(=O)NC2=O)CC1 (single isomer, unassigned) [Compound 40-5]",< 1000
8,"CC(C)(C)OC(=O)N1CCC(c2ccc3c(c2)CCN3[C@H]2CCC(=O)NC2=O)CC1 (single isomer, unassigned) [Compound 40-6]",< 100000
9,"CC(C)(C)OC(=O)C1CCN(c2cccc3c2CCN3[C@H]2CCC(=O)NC2=O)CC1 (single isomer, unassigned) [Compound 48-6]",< 100000
10,"CC(C)(C)OC(=O)C1CCN(c2cccc3c2CCN3[C@@H]2CCC(=O)NC2=O)CC1 (single isomer, unassigned) [Compound 48-7]",< 100000
11,"CC(C)(C)OC(=O)N1CCC(c2cc3c(cc2F)N([C@H]2CCC(=O)NC2=O)CC3)CC1 (single isomer, unassigned) [Compound 52-6]",< 1000
12,"CC(C)(C)OC(=O)N1CCC(c2cc3c(cc2F)N([C@@H]2CCC(=O)NC2=O)CC3)CC1 (single isomer, unassigned) [Compound 52-7]",< 100000
13,"O=C1CC[C@H](N2CCc3c(N4CCC(CO)CC4)cccc32)C(=O)N1 (single isomer, unassigned) [Compound 53-5]",< 1000
14,"O=C1CC[C@@H](N2CCc3c(N4CCC(CO)CC4)cccc32)C(=O)N1 (single isomer, unassigned) [Compound 53-6]",< 100000
15,"CC(C)(C)OC(=O)C1CCN(Cc2cccc3c2CCN3[C@H]2CCC(=O)NC2=O)CC1 (single isomer, unassigned) [Compound 54-6]",< 100000
16,"CC(C)(C)OC(=O)C1CCN(Cc2cccc3c2CCN3[C@@H]2CCC(=O)NC2=O)CC1 (single isomer, unassigned) [Compound 54-7]",< 100000
17,"CN(C(=O)OC(C)(C)C)[C@H]1CC[C@H](c2c(F)cc3c(c2F)CCN3[C@H]2CCC(=O)NC2=O)CC1 (single isomer, unassigned) [Compound 55-4]",< 100000
18,"CN(C(=O)OC(C)(C)C)[C@H]1CC[C@H](c2c(F)cc3c(c2F)CCN3[C@@H]2CCC(=O)NC2=O)CC1 (single isomer, unassigned) [Compound 55-5]",< 100000
19,"CN(C(=O)OC(C)(C)C)[C@H]1CC[C@@H](c2c(F)cc3c(c2F)CCN3[C@H]2CCC(=O)NC2=O)CC1 (single isomer, unassigned) [Compound 55-6]",< 100000
20,"CN(C(=O)OC(C)(C)C)[C@H]1CC[C@@H](c2c(F)cc3c(c2F)CCN3[C@@H]2CCC(=O)NC2=O)CC1 (single isomer, unassigned) [Compound 55-7]",< 100000
21,"CC(C)(C)OC(=O)N1CC[C@H]2CN(c3cccc4c3CCN4[C@H]3CCC(=O)NC3=O)CC[C@H]21 (single isomer, unassigned) [Compound 56-8a]",< 100000
22,"CC(C)(C)OC(=O)N1CC[C@@H]2CN(c3cccc4c3CCN4[C@H]3CCC(=O)NC3=O)CC[C@@H]21 (single isomer, unassigned) [Compound 56-8b]",< 100000
23,"CC(C)(C)OC(=O)N1CC[C@H]2CN(c3cccc4c3CCN4[C@@H]3CCC(=O)NC3=O)CC[C@H]21 (single isomer, unassigned) [Compound 56-9a]",< 100000
24,"CC(C)(C)OC(=O)N1CC[C@@H]2CN(c3cccc4c3CCN4[C@@H]3CCC(=O)NC3=O)CC[C@@H]21 (single isomer, unassigned) [Compound 59-9b]",< 1000

# Same assay, conditions: 0.05% PA, 0.1% BSA; tetrahydroquinoline binders; read-out: FP CRBN_DDB1.3 0.05% PA, 0.1% BSA ka nM
row,Compound,Kd [nM]
1,"CC(C)(C)OC(=O)CN1CCC(c2cccc3c2CCCN3[C@H]2CCC(=O)NC2=O)CC1 (single isomer, unassigned) [Compound 60-3]",< 1000
2,"CC(C)(C)OC(=O)CN1CCC(c2cccc3c2CCCN3[C@@H]2CCC(=O)NC2=O)CC1 (single isomer, unassigned) [Compound 60-4]",< 100000
3,"CN(C(=O)OC(C)(C)C)C1CCN(c2cccc3c2CCCN3[C@H]2CCC(=O)NC2=O)CC1 (single isomer, unassigned) [Compound 61-5]",< 100000
4,"CN(C(=O)OC(C)(C)C)C1CCN(c2cccc3c2CCCN3[C@@H]2CCC(=O)NC2=O)CC1 (single isomer, unassigned) [Compound 61-6]",< 1000
5,"O=C1CC[C@H](N2CCCc3c(N4CCC(CCO)CC4)cccc32)C(=O)N1 (single isomer, unassigned) [Compound 66-4]",< 1000
6,"O=C1CC[C@@H](N2CCCc3c(N4CCC(CCO)CC4)cccc32)C(=O)N1 (single isomer, unassigned) [Compound 66-5]",< 100000
7,"CC(C)(C)OC(=O)N1CCC(OC2CCN(c3cccc4c3CCCN4[C@H]3CCC(=O)NC3=O)CC2)CC1 (single isomer, unassigned) [Compound 67-6]",< 100000
8,"CC(C)(C)OC(=O)N1CCC(OC2CCN(c3cccc4c3CCCN4[C@@H]3CCC(=O)NC3=O)CC2)CC1 (single isomer, unassigned) [Compound 67-7]",< 1000
9,"CC(C)(C)OC(=O)N1CCN(c2cccc3c2CCCN3[C@H]2CCC(=O)NC2=O)CC1 (single isomer, unassigned) [Compound 68-3]",< 100000
10,"CC(C)(C)OC(=O)N1CCN(c2cccc3c2CCCN3[C@@H]2CCC(=O)NC2=O)CC1 (single isomer, unassigned) [Compound 68-4]",< 1000
